{"source": "patent US7396857B2", "about": "“Therapeutic combinations for the treatment or prevention of depression” (Wyeth, priority 2005, dated 2008)", "key": {"[1]": {"system": "Male Swiss Webster mice", "assay": "Tail suspension test", "assay_type": "in vivo", "text": "Compound 1, (7-(2,6-dichlorophenyl)-5-fluoro-2,3-dihydrobenzofuran-2-yl)methanamine, was used to exemplify the effectiveness of compounds of the present invention in the tail suspension test. While not a direct model of depression, the tail suspension test is an assay that can evaluate antidepressant-like effects of drugs. Clinically effective drugs such as Prozac (fluoxetine) are effective in this assay. Specifically, they decrease the amount of time the mice spend immobile after being hung upside down by their tails during the test. It is impossible to determine if a mouse is indeed depressed. However, the fact that clinically effective antidepressants reduce immobility lends predictive validity to the model.\nMale Swiss Webster mice (Charles River) weighing 20-35 g were used throughout this study. They were housed in groups of five per cage in an AALAC-accredited facility that was maintained on a 12-h light dark cycle (lights on at 0600 h) and had free access to food and water. Experimental groups consisted of 12 mice, randomly assigned to treatment groups. All experiments were performed between 9:00 AM and noon in accordance to the Guide for the Care and Use of Laboratory Animals as adopted and promulgated by the National Institutes of Health (Pub. 85-23, 1985).\nSolutions of Compound 1 and paroxetine were freshly prepared. Compound 1 was dissolved in saline and paroxetine was dissolved in distilled water. All drugs were injected i.p. at a volume of 10 ml/kg body weight. Combination treatments were cotreated, 30 minutes prior to the test.\nThe procedure followed in this study was a variant of the one originally described by Steru et al. (1985). […] The time spent immobile during a 6-minute test session was automatically recorded. […] Data collected were expressed as a mean of immobility time and statistical analysis was performed using a one-way ANOVA with least significant difference (LSD) post-hoc test."}, "[2]": {"system": "Male Swiss Webster mice", "conditions": "general statement on clinically effective drugs; cited from earlier work"}}}
{"smiles": "NCC1Cc2cc(F)cc(-c3c(Cl)cccc3Cl)c2O1", "note": "(stereo not shown) [Compound 1, (7-(2,6-dichlorophenyl)-5-fluoro-2,3-dihydrobenzofuran-2-yl)methanamine]", "values": [{"measurement": "produced antidepressant-like effects alone", "setting": "[1]; Compound 1 0.1 mg/kg i.p. alone, 30 minutes prior to test, 6-minute session", "result": "Neither"}]}
{"smiles": "CNCCC(Oc1ccc(C(F)(F)F)cc1)c1ccccc1", "note": "(stereo not shown) [Prozac, N-methyl-3-(p-trifluoromethylphenoxy)-3-phenylpropylamine]", "values": [{"measurement": "effectiveness in the tail suspension assay (decrease of time spent immobile)", "setting": "[2]", "result": "effective"}]}
{"smiles": "Fc1ccc([C@@H]2CCNC[C@H]2COc2ccc3c(c2)OCO3)cc1", "note": "[paroxetine, trans-(−)-3-[(1,3-benzodioxol-5-yloxy)methyl]-4-(4-fluo-rophenyl)piperidine]", "values": [{"measurement": "decrease in immobility time", "setting": "[1]; paroxetine 10 mg/kg i.p. dosed alone", "result": 5, "unit": "%"}, {"measurement": "decrease in immobility time", "setting": "[1]; paroxetine 30 mg/kg i.p. dosed alone", "result": 4, "unit": "%"}]}
